Patent publication US8277810B2, “Antagonist anti-CD40 antibodies” (Novartis Vaccines & Diagnostics, Inc., priority 2003, dated 2012)

Legend:
[1] = system: IM-9 tumor cells; experiment: IM-9 multiple myeloma xenograft, staged subcutaneous model; type: in vivo, SCID mice
Method: SCID mice were inoculated subcutaneously with IM-9 tumor cells (a human multiple myeloma cell line expressing both CD40 and CD20) in 50% […]™ at 5×10^6 cells per mouse. In unstaged models, treatment was initiated one day after tumor implantation. In staged models, treatment was initiated when tumor volume reached 150-200 mm^3. […] Data were analyzed using the log-rank test.

[2] = system: IM-9 tumor cells; experiment: IM-9 multiple myeloma xenograft, unstaged conditional survival model; design: species or system SCID mice; details: mouse, in vivo
Method: SCID mice were inoculated subcutaneously with IM-9 tumor cells (a human multiple myeloma cell line expressing both CD40 and CD20) in 50% […]™ at 5×10^6 cells per mouse. In unstaged models, treatment was initiated one day after tumor implantation. In staged models, treatment was initiated when tumor volume reached 150-200 mm^3. Tumor-bearing mice were injected with anti-CD40 mAb intraperitoneally once a week at the indicated doses. Data were analyzed using the log-rank test.

[3] = system: Namalwa tumors; experiment: Staged human NHL Namalwa xenograft model; type: in vivo, T cell-deficient nude mice; details: CHIR-12.12 1 mg/kg ip once a week for 4 weeks; IL-2 0.5 mg/kg sc daily for 8 days; N=10 mice/group
Description: Therefore, the component of these mAbs' anti-tumor activity based on blocking the tumor proliferation/survival signal is not expected to contribute to anti-tumore efficacy in these models.
To ensure consistent tumor growth, T cell-deficient nude mice were whole-body irradiated at 3 Gy to further suppress the immune system one day before tumor inoculation. Tumor cells were inoculated subcutaneously in the right flank at 5×10^6 cells per mouse. Treatment was initiated when tumor volume reached about 100-200 mm^3 (about 7 days after tumor inoculation). […] Tumor volumes were recorded twice a week. Data were analyzed using ANOVA.

Compound	tumor growth inhibition ([1]; 0.5 mg/kg twice a week)	tumor growth inhibition ([1]; MTD 1 mg/kg twice a week) [%]	outcome of treated group [2]	growth of Namalwa tumors, single agent [3]
CC(C)C[C@H](NC(=O)[C@H](Cc1ccccc1)NC(=O)c1cnccn1)B(O)O [bortezomib]	did not inhibit tumor growth	30	euthanized between day 18 and day 26	–
IL-2: IL-2 used in the xenograft example; b966 says des-alanyl-1, serine-125 human IL-2 is used in the examples	–	–	–	inhibited the growth of Namalwa tumors
